Assay results: US4645776A, “N-(dichlorofluoromethylthio)-3,4-dimethylmaleimide and its use as a fungicide” (Bayer Aktiengesellschaft, priority 1984, dated 1987)
≈ marks a conversion by molar mass, not a printed value.

Tests used:
Alternaria tenuis = assay: MIC on agar, Alternaria tenuis; type: cell-based; conditions: Alternaria alternata, 336 h, beerwort/peptone agar, 28° C., 2 weeks
Method: (§1) N-(Dichlorofluoromethylthio)-3,4-dimethylmaleimide is added in concentrations of 0.1 mg/l to 5,000 mg/l to an agar prepared from beerwort and peptone. After storage at 28° C. and 60 to 70% relative atmospheric humidity for 2 weeks, the MIC is determined. The MIC is the lowest concentration of active compound at which no growth at all of the species of microbe used takes place, and is given in the following table.

Aspergillus niger = assay: MIC on agar, Aspergillus niger; type: cell-based; conditions: 336 h, beerwort/peptone agar, 28° C., 2 weeks
Method: as §1

Aureobasidium pullulans = assay: MIC on agar, Aureobasidium pullulans; type: cell-based; conditions: 336 h, beerwort/peptone agar, 28° C., 2 weeks
Method: as §1

Chaetomium globosum = assay: MIC on agar, Chaetomium globosum; type: cell-based; conditions: 336 h, beerwort/peptone agar, 28° C., 2 weeks
Method: as §1

Coniophora puteana = assay: MIC on agar, Coniophora puteana; type: cell-based; conditions: 336 h, beerwort/peptone agar, 28° C., 2 weeks
Method: as §1

Lentinus tigrinus = assay: MIC on agar, Lentinus tigrinus; type: cell-based; conditions: 336 h, beerwort/peptone agar, 28° C., 2 weeks
Method: as §1

Penicillium glaucum = assay: MIC on agar, Penicillium glaucum; type: cell-based; conditions: 336 h, beerwort/peptone agar, 28° C., 2 weeks
Method: as §1

Polyporus versicolor = assay: MIC on agar, Polyporus versicolor; type: cell-based; conditions: Trametes versicolor, 336 h, beerwort/peptone agar, 28° C., 2 weeks
Method: as §1

Sclerophoma pityophila = assay: MIC on agar, Sclerophoma pityophila; type: cell-based; conditions: Sydowia polyspora, 336 h, beerwort/peptone agar, 28° C., 2 weeks
Method: as §1

Trichoderma viride = assay: MIC on agar, Trichoderma viride; type: cell-based; conditions: 336 h, beerwort/peptone agar, 28° C., 2 weeks
Method: as §1

slime organisms = assay: Action against slime organisms; type: cell-based; conditions: 504 h; slime organisms (about 10^6 germs/ml), Allens nutrient solution, room temperature, 3 weeks
Method: N-(Dichlorofluoromethylthio)-3,4-dimethylmaleimide (dissolved in a little acetone) is used in concentrations of in each case 0.1 to 100 mg/l in Allens nutrient solution (Arch. Mikrobiol. 17, 34 to 53 (1952)), which contains, in 4 l of sterile water, 0.2 g of ammonium chloride, 4.0 g of sodium nitrate, 1.0 g of dipotassium hydrogen phosphate, 0.2 g of calcium chloride, 2.05 g of magnesium sulphate, 0.02 g of iron chloride and 1% of caprolactam. Shortly beforehand, the nutrient solutions are infected with slime organisms (about 10^6 germs/ml) which have been isolated from spinning water circulations used in the production of polyamide. Nutrient solutions which contain the minimum inhibitory concentration (MIC) or higher concentrations of active compound are still completely clear after culture at room temperature for 3 weeks, that is to say the marked increase in microbes and slime formation noticeable after 3 to 4 days in nutrient solutions containing no active compound are absent.

[1] = system: Aspergillus niger, Aureobasidium pullulans, Alternaria tenuis, Penicillim citrinum, Stachybotrys atra, Paecilamyces varioti, Cladosporium herbarum, Aspergillus …; assay: Test as a paint fungicide (mould-resistance of paint films, Report 219 of the Defense Standards Laboratories); conditions: alkyd resin lacquer paint containing 0.8% of compound based on weight of film; also after ageing (running water 24° C. 24 h, fresh air 40° to 60° C. 8 days, dry Xenon test 110 h); evaluated after 3 weeks at 28° to 30° C.
Method: The testing is carried out in accordance with the method in Report 219 of the Defense Standards Laboratories Maribyrnong/Australia, as follows: A smooth card is coated on both sides with the paint to be tested and dried at room temperature for 8 days. For ageing, part of the paint film is kept in running water of 24° C. for 24 hours, or aerated with fresh air of 40° to 60° C. for 8 days, or subjected to a dry Xenon test for 110 hours. 5×5 cm sections of the samples thus prepared are placed individually on a glucose nutrient medium in Petri dishes and contaminated with a spore suspension of the following fungi: Aspergillus niger, Aureobasidium pullulans, Alternaria tenuis, Penicillim citrinum, Stachybotrys atra, Paecilamyces varioti, Cladosporium herbarum, Aspergillus ustus and Aspergillus flavus.
The contaminated dishes are kept at 28° to 30° C. and 90 to 95% relative atmospheric humidity, and are evaluated after 3 weeks. Paint films are regarded as mould-resistant if the samples remain free from fungi after these tests.
A commercially available lacquer paint based on alkyd resin is tested for mould-resistance by the above-mentioned test method.

Structure (SMILES): CC1=C(C)C(=O)N(SC(F)(Cl)Cl)C1=O [N-(dichlorofluoromethylthio)-3,4-dimethylmaleimide]
- MIC (Alternaria tenuis): 0.75 µg/mL (≈ 2.91 µM)
- MIC (Aspergillus niger): 50 µg/mL (≈ 194 µM)
- MIC (Aureobasidium pullulans): 0.5 µg/mL (≈ 1.94 µM)
- MIC (Chaetomium globosum): 50 µg/mL (≈ 194 µM)
- MIC (Coniophora puteana): 0.75 µg/mL (≈ 2.91 µM)
- MIC (Lentinus tigrinus): 1.5 µg/mL (≈ 5.81 µM)
- MIC (Penicillium glaucum): 5 µg/mL (≈ 19.4 µM)
- MIC (Polyporus versicolor): 7.5 µg/mL (≈ 29.1 µM)
- MIC (Sclerophoma pityophila): 1 µg/mL (≈ 3.87 µM)
- MIC (Trichoderma viride): 100 µg/mL (≈ 387 µM)
- MIC (slime organisms): 7.5 µg/mL (≈ 29.1 µM)
- mould-resistance of paint films [1]: mould-resistant
